Measurements: patent US20170009266A1, “PROCESS FOR THE ATTACHMENT OF A GALNAC MOIETY COMPRISING A (HETERO)ARYL GROUP TO A GLCNAC MOIETY, AND PRODUCT OBTAINED THEREBY” (SYNAFFIX B.V., priority 2014, published 2017)

Biological target: T1, Gal-T1(Y289L,C342T) (Bos taurus, UniProt P08037, C342T/Y289L)
T1 construct: host or cells: E. coli
T1 sequence (P08037 130-402 V158I/P187L/I205M/L206V/Y289L/C342T): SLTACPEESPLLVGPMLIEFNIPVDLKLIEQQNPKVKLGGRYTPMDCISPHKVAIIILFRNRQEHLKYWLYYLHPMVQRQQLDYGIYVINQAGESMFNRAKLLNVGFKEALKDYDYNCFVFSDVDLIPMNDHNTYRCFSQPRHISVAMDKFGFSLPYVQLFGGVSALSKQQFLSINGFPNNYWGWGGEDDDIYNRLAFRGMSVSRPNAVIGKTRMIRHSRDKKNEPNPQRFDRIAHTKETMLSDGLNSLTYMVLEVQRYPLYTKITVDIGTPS
Assay: Glycosyltransfer of UDP-galactosamine derivatives to trimmed antibody with Gal-T1(Y289L,C342T), mass spectral analysis
Format: biochemical, bovine
Experimental: A solution of 20 μg (modified) IgG was incubated for 1 hour at 37° C. with Fabricator™ (commercially available from Genovis, Lund, Sweden) (1.25 U/μL) in phosphate-buffered saline (PBS) pH 6.6 in a total volume of 10 μL. Fabricator™-digested samples were washed trice with milliQ using an Amicon Ultra-0.5, Ultracel-10 Membrane (Millipore) resulting in a final sample volume of approximately 40 μL. The Fc/2 fragment was analyzed by electrospray ionization time-of-flight (ESI-TOF) on a JEOL AccuTOF. Deconvoluted spectra were obtained using Magtran software.
Trimmed trastuzumab (10 mg/mL, 3.3 nmol), obtained by Endo S treatment of trastuzumab, was incubated with nicotinic acid variant of UDP-galactosamine (21, 2 mM) and Gal-T1(Y289L,C342T) (0.5 mg/mL, 3 μL/4 mg/ml) in 10 mM MnCl2 and 25 mM Tris-HCl pH 7.5 at 30° C. overnight. Mass spectral analysis of the sample after treatment with Fabricator™ (commercially available from Genovis) indicated the formation of the correct structure of CH2-CH3 fragment of 28 (24404 Da, expected mass 24405 Da, approximately 35% conversion), resulting from galactosamide nicotinic acid transfer to core GlcNAc(Fuc) substituted trastuzumab heavy chain.
A pET22b vector containing the sequence encoding residues 130-402 of bovine Gal-T1 with the Y289L and C342T mutations between the NdeI-BamHI sites was obtained from Genscript. Using this plasmid Gal-T1(Y289L,C342T) was expressed, isolated and refolded from inclusion bodies according to the reported procedure by Qasba et al. (Prot. Expr. Pur. 2003, 30, 219-76229, incorporated by reference herein). After refolding, the solution was dialyzed against 20 mM Tris pH 7.5 and the insoluble protein was removed by centrifugation (10 minutes 10.000 g). The soluble Gal-T1(Y289L,C342T), represented by SEQ ID NO: 25, was purified and concentrated using a cation exchange column (Source 15S HR16/10 column, GE Healthcare). After elution with 20 mM Tris-HCl pH 7.5, 1 M NaCl, the protein was dialyzed against 20 mM Tris-HCl pH 7.5. This procedure yielded 90 mg inclusion bodies from 0.5 L culture, which after refolding gave 3.9 mg active soluble protein.
Trimmed trastuzumab (10 mg/mL, 66 μM), obtained by Endo S treatment of trastuzumab, was incubated with the 4-azido-2,3,5,6-tetrafluorobenzoyl derivative of UDP-galactosamine (23b, 1 mM) and Gal-T1(Y289L,C342T) (1.0 mg/mL) in 10 mM MnCl2 and 25 mM Tris-HCl pH 8.0 at 30° C. overnight. Mass spectral analysis of the Fabricator™-digested sample indicated a partial conversion of core GlcNac(Fuc)-substituted trastuzumab (observed mass 24139 Da, calculated mass of 24136 Da) into the product 30b (observed mass 24518 Da, calculated mass of 24514 Da, approximately 10% of total Fc/2 fragment), resulting from transfer of 23b to core GlcNAc(Fuc)-substituted trastuzumab.
Trimmed cetuximab (5 mg/mL, 33 μM), obtained by Endo S treatment of cetuximab, was incubated with the 4-azido-2,3,5,6-tetrafluorobenzoyl derivative of UDP-galactosamine (23b, 2 mM) and Gal-T1(Y289L,C342T) (1.0 mg/mL) in 25 mM Tris-HCL pH 7.5 and 150 mM NaCl at 30° C. overnight. Mass spectral analysis of the Fabricator™-digested sample indicated a partial conversion of the core GlcNac(Fuc)-substituted adalimumab (observed mass 24138 Da, calculated mass of 24136 Da) into product 30b (observed mass 24518 Da, calculated mass of 24514 Da, approximately 20% of total Fc/2 fragment), resulting from transfer of 23b to core GlcNAc(Fuc)-substituted adalimumab.
Trimmed bevacizumab (5 mg/mL, 33 μM), obtained by Endo S treatment of bevacizumab, was incubated with the 4-azido-2,3,5,6-tetrafluorobenzoyl derivative of UDP-galactosamine (23b, 2 mM) and Gal-T1(Y289L,C342T) (1.0 mg/mL) in 25 mM Tris-HCL pH 7.5 and 150 mM NaCl at 30° C. overnight. […]

For `O=C(NC1C(OP(=O)(O)OP(=O)(O)OCC2OC(n3ccc(=O)[nH]c3=O)C(O)C2O)OC(CO)C(O)C1O)c1cccnc1` (stereo not shown) [Compound 21, 3-pyridylcarbonyl Derivative of UDP-GalNH2], the conversion (trimmed trastuzumab 10 mg/mL, UDP derivative 2 mM, enzyme 0.5 mg/mL (E. coli), pH 7.5, 30° C. overnight, Fabricator-digested) was “approximately 35%”.
`[N-]=[N+]=Nc1ccc(C(=O)NC2C(OP(=O)(O)OP(=O)(O)OCC3OC(n4ccc(=O)[nH]c4=O)C(O)C3O)OC(CO)C(O)C2O)cn1` (stereo not shown) [Compound 21b, 6-azidonicotinic Acid Derivative of UDP-GalNH2] was tested, and the “product, % of total Fc/2 fragment” value (trimmed trastuzumab 10 mg/mL, UDP derivative 5 mM, enzyme 1.0 mg/mL, pH 7.5, 30° C. overnight) was “approximately 95%”.
For `[N-]=[N+]=Nc1c(F)cc(C(=O)N[C@H]2[C@@H](OP(=O)(O)OP(=O)(O)OC[C@H]3O[C@@H](n4ccc(=O)[nH]c4=O)[C@H](O)[C@@H]3O)O[C@H](CO)[C@H](O)[C@@H]2O)cc1F` [Compound 23, 4-azido-3,5-difluorobenzoyl Derivative of UDP-GalNH2], the “conversion of core GlcNAc(Fuc)-substituted trastuzumab into product” value (trimmed trastuzumab 10 mg/mL, UDP derivative 1 mM, enzyme 1.0 mg/mL, pH 8.0, 30° C. overnight, reduced sample) was “complete conversion”.
For `[N-]=[N+]=Nc1c(F)c(F)c(C(=O)N[C@H]2[C@@H](OP(=O)(O)OP(=O)(O)OC[C@H]3O[C@@H](n4ccc(=O)[nH]c4=O)[C@H](O)[C@@H]3O)O[C@H](CO)[C@H](O)[C@@H]2O)c(F)c1F` [Compound 23b, 4-azido-2,3,5,6-tetrafluorobenzoyl Derivative of UDP-GalNH2], the “product, % of total Fc/2 fragment” value (trimmed adalimumab 5 mg/mL, UDP derivative 2 mM, enzyme 1.0 mg/mL, pH 7.5, 30° C. overnight) was “approximately 30%”, the “product, % of total Fc/2 fragment” value (trimmed bevacizumab 5 mg/mL, UDP derivative 2 mM, enzyme 1.0 mg/mL, pH 7.5, 30° C. overnight) was “approximately 30%” and the “product, % of total Fc/2 fragment” value (trimmed cetuximab 5 mg/mL, UDP derivative 2 mM, enzyme 1.0 mg/mL, pH 7.5, 30° C. overnight) was “approximately 20%”. For the same molecule, the “product, % of total Fc/2 fragment” value (trimmed trastuzumab 10 mg/mL, UDP derivative 1 mM, enzyme 1.0 mg/mL, pH 8.0, 30° C. overnight) was “approximately 10%”.
